The text below walks through data of article PMC8097335, “A High‐Affinity Calmodulin‐Binding Site in the CyaA Toxin Translocation Domain is Essential for Invasion of Eukaryotic Cells” (Advanced Science, 2021).

Series [1] is described as follows: Peptide translocation across droplet interface bilayers (DIB). In kind it is in vitro ADME. As to conditions: TAMRA (dye)-labeled peptide in cis, 15 min; for Peptide in trans droplet, 5 µM holo-CaM in trans: POPC:POPG 9:1 bilayer, CaCl2 2 mM cis vs 0.2 mM trans, epifluorescence, four to seven independent trials. On the procedure:
weak fluorescence signal. […]
fluorescence signal. The samples were prepared at the following final concentrations: 10 µM […]
concentration of CDZ wa s 14.5 mM in 100% DMSO. Addition of CDZ at a final concentration of 40 µ M gives a final concentration of less than 0.3 % of DMSO in the […]
Peptide translocation followed by droplet interface bilayerexperiments
An aqueous phase is prepared with buffer D or E and the oil phase is prepared with 15 % (v/v) of chloroform and 0.08%(w/v) of lipids (POP C: POP G at a 9:1molar ratio) in squalene.
A population of droplets is obtained by adding 2 µL of the aqueous phase to 20 µL of the oil phase before briefly shaking the mixture to create an invert emulsion. Two droplet populations were prepared: one containing the TAMRA-labeled peptide in buffer D , the “source”, cis-droplets and the other one containing buffer D or E, or in the presence or in the absence of calmodulin, the “capture”, trans -droplets. […] The fluorescence signals of the “source” and the “capture” droplets were monitored by epifluorescence microscopy for 15 minutes with an Olympus microscope and a MicroMax camera (Princeton Instrument). […]
Quantification of the translocation process is possible thanks to the analysis of the fluorescence images of the droplet pairs. Even if fluorescence is not directly proportional to peptide concentration due to photo-bleaching and small volume variations, one can hypothesize that the fluorescence intensities of the “source” and the “capture” droplets are proportional to the ratio of their concentrations. Moreover, as the initial concentration in the “source” droplet is known and as the total amount of peptide is conserved during the experience, we can write that: CCss (tt = 0) × VVss = CCss (tt ) × VVss + CCcc (tt ) × VVcc , where Ci is the concentration of the droplet i, Vi its volume, which was determined from microscopy images (i=”s” for the source droplet and “c” for the capture droplet). […]
CCcc = CCss (tt = 0) × VVss where F i is the fluorescence intensity measured fordroplet i. […]
analyzed in buffer C. […]

The nature of series [2]: Peptide titrations by SUVs followed by tryptophan fluorescence (solution-to-membrane partition). The note with it: POPC:POPG 8:2 SUVs, buffer A pH 7.4, 25 °C, tryptophan fluorescence ratio 330/370 nm; S.D. within ± 10%. In kind it is physicochemical. On the procedure: Lipid vesicles preparation
Small unilamellar vesicles (SUVs) and large unilamellar vesicles (LUVs) were prepared with POPC and POPG at a molar ratio of 8:2, at a lipid concentration of 10 mM in buffer A, as previously described 1. Briefly, SUVs and LUVs were prepared by reverse phase evaporation and filtered through polycarbonate filters of 1 μm and 0.2 μm of pore size diameter to obtain L UV. SUVs were further sonicated. The hydrodynamic diameters and mean net charge of the vesicles were measured by dynamic light scattering (DLS) and electrophoretic mobility, respectively, using a ZetaSizer NanoZS (Malvern Pananalytical , Orsay, France) 11.
Peptide titrations bySUV s and CaM followed by tryptophan fluorescence
Titrations were carried out with a FP-8200 Jasco spectrofluorimeter, equipped with a Pelt ie r - thermostated ETC-272T at 25°C. A bandwidth of 5 nm was used for both excitation and […]
(Hellma, France) with constant stirring. Fluorescence emission was recorded between 300 and […]
400 nm at a scan rate of 100 nm/min, with an excitation wavelength of 280 nm. Fluorescence emission spectra were corrected for SUV or CaM baselines . Fluorescence intensity ratio at 330 nm over 370 nm was use d to measure the partition coefficient (K X) of peptides between the solution andmembrane s 1, 12 and the affinity (K d) of peptides for CaM 13.
Determination of partition coefficient KX and dissociation constant Kd from […]
The partition coefficient KX is defined as the ratio of protein in the lipid (PL) and in buffer […]
(PW) pha se s 12, 14, expressed by: KKXX = [LL ]? , giving[PPWW ] [PPWW ]= [WW], where [W] the […]
concentration of water (55.5 M) and [L] the lipid concentration.
The fraction of peptide partitioned into the membrane, fPL, is equal to:
ffPPLL = [PPLL ][PPTT ]= [PPLL ][PPLL ]+[PPWW ]= 11+([PPWW ])= 11+( [WW]), where PT is the total concentration of peptides [PP TT ]= [PP LL ]+ [PP WW ]. […]
The equations a re fitted to the experimental data using the KaleidaGraph software, providing the KX and K d value s. The partition coefficient is related to the apparent dissociation constant:
KKXX × KKdd = [WW ] and to the free energy of partition ΔG Kx = -RTln(K X), where ΔG is the free energy in kcal/mol, R the gas constant (R = 1.98 x 10-3 kcal/mol/K) and T the temperature i n Kelvin. The free energy of peptide CaM interaction, ∆G Kd, is given by ΔG Kd = RTln(K d).
Sedimentation velocity-Analytical ultracentrifugation (SV -AUC) […]
ratio 1:1 (at 70 µM each). Samples were incubated 2h at 20°C in the ultracentrifuge and, then span at 42,000 rpm in an An-50 Ti rotor. […]

With `CC[C@H](C)[C@H](NC(=O)[C@H](CCCCN)NC(=O)[C@H](Cc1c[nH]c2ccccc12)NC(=O)[C@H](CC(C)C)NC(=O)[C@H](CC(C)C)NC(=O)[C@H](CC(=O)O)NC(=O)[C@@H](NC(=O)[C@H](CCCNC(=N)N)NC(=O)[C@H](CCC(=O)O)NC(=O)[C@H](CCCNC(=N)N)NC(=O)[C@H](CC(=O)O)NC(=O)[C@H](CC(C)C)NC(C)=O)[C@@H](C)CC)C(=O)N[C@@H](C)C(=O)N[C@@H](CCCNC(=N)N)C(=O)N[C@@H](C)C(=O)NCC(=O)N[C@@H](C)C(=O)N[C@@H](CCCNC(=N)N)C(=O)N[C@@H](CO)C(=O)N[C@@H](C)C(=O)N[C@H](C(=O)NCC(N)=O)C(C)C` [H-helix, reference compound], the “Peptide in trans droplet, 5 µM holo-CaM in trans” value in series [1] is given as “do not accumulate”.

For the compound “Ac-ASAHWGQEALQGAQAVAAAQELVHAIALMTQ-NH2 [P454 R12E]”, in series [2], the “Partition coefficient KX” value is recorded as 80 ×10^3. Besides, in series [1], the “Peptide in trans droplet, 5 µM holo-CaM in trans” value is “do not accumulate”. In addition, in series [1] (calcium gradient 2 mM cis vs 0.2 mM trans, five to seven independent trials), the “Peptide in trans droplet, 100 µM CaM in trans” value was “significant accumulation”.
